Assay results as given in patent US11008317B2, “Triazolopyridine inhibitors of myeloperoxidase and/or EPX” (priority 2016, dated 2021).
Counter-ions that a name gives are not always drawn.

How the values were obtained:
myeloperoxidase [1] = molecular target: T1, myeloperoxidase (Homo sapiens, UniProt P05164); assay: MPO Peroxidation Assay (Amplex Red Assay); type: biochemical; details: potency range class
T1 sequence (P05164 49-745): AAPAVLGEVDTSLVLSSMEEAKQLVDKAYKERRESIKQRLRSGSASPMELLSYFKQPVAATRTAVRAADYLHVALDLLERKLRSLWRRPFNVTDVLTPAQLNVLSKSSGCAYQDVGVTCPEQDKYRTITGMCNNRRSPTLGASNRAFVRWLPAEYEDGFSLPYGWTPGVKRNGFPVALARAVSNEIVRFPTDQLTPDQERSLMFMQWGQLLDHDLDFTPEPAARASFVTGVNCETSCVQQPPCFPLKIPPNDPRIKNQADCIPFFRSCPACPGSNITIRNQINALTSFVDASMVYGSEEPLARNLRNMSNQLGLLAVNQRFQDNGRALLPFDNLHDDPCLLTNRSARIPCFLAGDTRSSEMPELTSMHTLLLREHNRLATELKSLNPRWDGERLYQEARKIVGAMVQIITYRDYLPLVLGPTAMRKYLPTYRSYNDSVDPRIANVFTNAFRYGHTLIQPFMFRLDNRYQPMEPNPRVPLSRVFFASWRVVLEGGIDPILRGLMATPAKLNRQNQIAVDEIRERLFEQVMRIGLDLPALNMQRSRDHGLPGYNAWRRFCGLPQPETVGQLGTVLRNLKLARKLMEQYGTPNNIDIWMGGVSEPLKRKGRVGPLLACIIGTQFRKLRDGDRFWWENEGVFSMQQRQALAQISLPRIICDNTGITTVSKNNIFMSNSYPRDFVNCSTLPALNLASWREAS

myeloperoxidase [2] = molecular target: T1, myeloperoxidase; assay: MPO Chlorination Assay (APF Assay); type: biochemical; details: potency range class
[3] = read-out: Amplex Red Assay IC50 value

| SMILES | IC50 (myeloperoxidase [1]; [3]) | IC50 (myeloperoxidase [2]; read-out: APF Assay IC50 value) | IC50 (myeloperoxidase [1]; Amplex Red Assay IC50 value (μM)) | IC50 (myeloperoxidase [2]; APF Assay IC50 value (μM)) |
| --- | --- | --- | --- | --- |
| Nc1cc([C@H](CC(=O)NC2CCC(c3ccccc3)c3ccccc32)c2ccccc2)c2nn[nH]c2n1 (stereo partly drawn) [Example 203, (3R)-3-{5-amino-3H-[1,2,3]triazolo[4,5-b]pyridin-7-yl}-3-phenyl-N-(4-phenyl-1,2,3,4-tetrahydronaphthalen-1-yl)propanamide] | 1 to 10 µM | 0.101 to 0.999 µM | – | – |
| Nc1cc(C(CCCN2CC(c3ccc(F)cc3)c3ccccc32)c2ccccc2)c2nn[nH]c2n1 (stereo not drawn) [Example 205, 7-{4-[3-(4-fluorophenyl)-2,3-dihydro-1H-indol-1-yl]-1-phenylbutyl}-3H-[1,2,3]triazolo [4,5-b]pyridin-5-amine] | 1 to 10 µM | 1 to 10 µM | – | – |
| Nc1cc(C(CCCN2CCC(c3ccccc3)c3ccccc32)c2ccccc2)c2nn[nH]c2n1 (stereo not drawn) [Example 206, 7-[1-phenyl-4-(4-phenyl-1,2,3,4-tetrahydroquinolin-1-yl)butyl]-3H-[1,2,3]triazolo [4,5-b]pyridin-5-amine] | 1 to 10 µM | 0.001 to 0.1 µM | – | – |
| Nc1cc(C(CCCN[C@H]2CC[C@H](c3ccccc3)CC2)c2ccccc2)c2nn[nH]c2n1 (stereo partly drawn) [Example 208, 7-(1-phenyl-4-{[(trans)-4-phenylcyclohexyl]amino}butyl)-3H-[1,2,3]triazolo [4,5-b]pyridin-5-amine] | 1 to 10 µM | 0.101 to 0.999 µM | – | – |
| Nc1cc([C@H](CCCN2CC[C@H]3C[C@@H]2Cc2ccccc23)c2ccccc2)c2nn[nH]c2n1 [Example 219, 7-((R)-1-phenyl-4-((2R,6S)-1,4,5,6-tetrahydro-2,6-methanobenzo[d]azocin-3(2H)-yl)butyl)-3H-[1,2,3] triazolo[4,5-b] pyridin-5-amine] | – | – | 0.101 to 0.999 µM | 0.001 to 0.1 µM |
| Nc1cc([C@H](CCCN2CCC3(CC2)NC(=O)Nc2ccccc23)c2ccccc2)c2nn[nH]c2n1 [Example 222, 1-[(4R)-4-{5-amino-3H-[1,2,3]triazolo [4,5-b]pyridin-7-yl}-4-phenylbutyl]-2′,3′-dihydro-1′H-spiro [piperidine-4,4′-quinazoline]-2′-one] | 1 to 10 µM | 0.001 to 0.1 µM | – | – |
| Nc1cc(C(CCO[C@H]2CC[C@H](c3ccccc3)CC2)c2ccccc2)c2nn[nH]c2n1 (stereo partly drawn) [Example 223, 7-(1-phenyl-3-((4-phenylcyclohexyl)oxy)propyl)-3H-[1,2,3]triazolo[4,5-b]pyridin-5-amine] | 0.101 to 0.999 µM | 0.101 to 0.999 µM | – | – |
| Nc1cc(C(CC(O)CCc2ccccc2)c2ccccc2)c2nn[nH]c2n1 (stereo not drawn) [Example 225, 1-(5-amino-3H-[1,2,3]triazolo[4,5-b]pyridin-7-yl)-1,5-diphenylpentan-3-ol, TFA] | 0.101 to 0.999 µM | 0.101 to 0.999 µM | – | – |
| Nc1cc(C(CNCC(F)(F)c2ccccc2)c2ccccc2)c2nn[nH]c2n1 (stereo not drawn) [Example 226, 7-(2-((2,2-difluoro-2-phenylethyl)amino)-1-phenylethyl)-3H-[1,2,3]triazolo[4,5-b]pyridin-5-amine] | 0.101 to 0.999 µM | 0.101 to 0.999 µM | – | – |
| Nc1cc(C(CNCCc2ccccc2)c2ccccc2)c2nn[nH]c2n1 (stereo not drawn) [Example 228, 7-{1-phenyl-2-[(2-phenylethyl)amino]ethyl}-3H-[1,2,3]triazolo[4,5-b]pyridin-5-amine] | 1 to 10 µM | 1 to 10 µM | – | – |

Continued, in another order:

| IC50 (myeloperoxidase [1]; [3]) | IC50 (myeloperoxidase [2]; read-out: APF Assay IC50 value) | SMILES | IC50 (myeloperoxidase [1]; Amplex Red Assay IC50 value (μM)) | IC50 (myeloperoxidase [2]; APF Assay IC50 value (μM)) |
| --- | --- | --- | --- | --- |
| 0.101 to 0.999 µM | 0.001 to 0.1 µM | Nc1cc(C(CCCN2CCC(O)(c3ccccc3)CC2)c2ccccc2)c2nn[nH]c2n1 (stereo not drawn) [Example 207, 1-(4-{5-amino-3H-[1,2,3]triazolo [4,5-b]pyridin-7-yl}-4-phenylbutyl)-4-phenylpiperidin-4-ol] | – | – |
| 0.101 to 0.999 µM | 0.101 to 0.999 µM | Nc1cc(C(CCCN2CCC(c3ccccc3)C2)c2ccccc2)c2nn[nH]c2n1 (stereo not drawn) [Example 209, 7-[1-phenyl-4-(3-phenylpyrrolidin-1-yl)butyl]-3H-[1,2,3]triazolo [4,5-b]pyridin-5-amine] | – | – |
| 0.101 to 0.999 µM | 0.001 to 0.1 µM | Nc1cc(C(CCCN2CCC3(CC2)OCc2ccccc23)c2ccccc2)c2nn[nH]c2n1 (stereo not drawn) [Example 210, 7-(1-phenyl-4-{3H-spiro[2-benzofuran-1,4′-piperidine]-1′-yl}butyl)-3H-[1,2,3]triazolo [4,5-b]pyridin-5-amine] | – | – |
| 0.101 to 0.999 µM | 0.001 to 0.1 µM | N#CC1(c2ccccc2)CCN(CCCC(c2ccccc2)c2cc(N)nc3[nH]nnc23)CC1 (stereo not drawn) [Example 211, 1-(4-{5-amino-3H-[1,2,3]triazolo [4,5-b]pyridin-7-yl}-4-phenylbutyl)-4-phenylpiperidine-4-carbonitrile] | – | – |
| 0.101 to 0.999 µM | 0.001 to 0.1 µM | Nc1cc(C(CCCN2CCCC(c3ccccc3)CC2)c2ccccc2)c2nn[nH]c2n1 (stereo not drawn) [Example 212, 7-[1-phenyl-4-(4-phenylazepan-1-yl)butyl]-3H-[1,2,3] triazolo[4,5-b] pyridin-5-amine] | – | – |
| 0.101 to 0.999 µM | 0.101 to 0.999 µM | Nc1cc(C(CCCN2CCC(Cc3ccccc3)CC2)c2ccccc2)c2nn[nH]c2n1 (stereo not drawn) [Example 213, 7-[4-(4-benzylpiperidin-1-yl)-1-phenylbutyl]-3H-[1,2,3]triazolo [4,5-b]pyridin-5-amine] | – | – |
| 0.101 to 0.999 µM | 0.001 to 0.1 µM | Nc1cc([C@H](CCCN2CCCC(c3ccccc3)CC2)c2ccccc2)c2nn[nH]c2n1 (stereo partly drawn) [Example 215, 7-[(1R)-1-phenyl-4-(4-phenylazepan-1-yl)butyl]-3H-[1,2,3]triazolo[4,5-b]pyridin-5-amine] | – | – |
| 0.101 to 0.999 µM | 0.001 to 0.1 µM | Nc1cc([C@H](CCCN2[C@@H]3CC[C@H]2C[C@](O)(c2ccc(Cl)cc2)C3)c2ccccc2)c2nn[nH]c2n1 [Example 216, (1R,3R,5S)-8-[(4R)-4-{5-amino-3H-[1,2,3]triazolo [4,5-b]pyridin-7-yl}-4-phenylbutyl]-3-(4-chlorophenyl)-8-azabicyclo[3.2.1] octan-3-ol] | – | – |
| 0.101 to 0.999 µM | 0.101 to 0.999 µM | Nc1cc([C@H](CCCN2CCC3(CC2)NC(=O)Cc2ccccc23)c2ccccc2)c2nn[nH]c2n1 [Example 217, 1′-[(4R)-4-{5-amino-3H-[1,2,3]triazolo [4,5-b]pyridin-7-yl}-4-phenylbutyl]-3,4-dihydro-2H-spiro[isoquinoline-1,4′-piperidine]-3-one] | – | – |
| 0.101 to 0.999 µM | 0.001 to 0.1 µM | Nc1cc([C@H](CCCN2CCC(c3ccc4ccccc4c3)CC2)c2ccccc2)c2nn[nH]c2n1 [Example 218, 7-[(1R)-4-[4-(naphthalen-2-yl)piperidin-1-yl]-1-phenylbutyl]-3H-[1,2,3]triazolo[4,5-b] pyridin-5-amine] | – | – |
| 0.101 to 0.999 µM | 0.101 to 0.999 µM | Nc1cc([C@H](CCCN2CCC(c3cccc(C(F)(F)F)c3)C(O)C2)c2ccccc2)c2nn[nH]c2n1 (stereo partly drawn) [Example 220, 1-[(4R)-4-{5-amino-3H-[1,2,3]triazolo [4,5-b]pyridin-7-yl}-4-phenylbutyl]-4-[3-(trifluoromethyl)phenyl]piperidin-3-ol] | – | – |
| 0.101 to 0.999 µM | 0.101 to 0.999 µM | Nc1cc([C@H](CCCN2CCC(Cc3ccccc3)C2)c2ccccc2)c2nn[nH]c2n1 (stereo partly drawn) [Example 221, 7-[(1R)-4-(3-benzylpyrrolidin-1-yl)-1-phenylbutyl]-3H-[1,2,3]triazolo[4,5-b]pyridin-5-amine] | – | – |
| 0.001 to 0.1 µM | 0.101 to 0.999 µM | Nc1cc(C(Cc2ccc(O)cc2)c2ccccc2)c2nn[nH]c2n1 (stereo not drawn) [Example 229, 4-(2-(5-amino-3H-[1,2,3]triazolo[4,5-b]pyridin-7-yl)-2-phenylethyl)phenol] | – | – |
| 0.001 to 0.1 µM | 1 to 10 µM | Nc1cc(C(Cc2cccc(O)c2)c2ccccc2)c2nn[nH]c2n1 (stereo not drawn) [Example 230, 3-(2-(5-amino-3H-[1,2,3]triazolo[4,5-b]pyridin-7-yl)-2-phenylethyl)phenol] | – | – |
